Common to all, as to assay type: functional
One assay deals with Enterococcus faecalis. Description: Antibacterial activity against Enterococcus faecalis ATCC 29212 by microbroth dilution method.
A further assay relates to Streptococcus pyogenes. Description: Antibacterial activity against Streptococcus pyogenes ATCC 19615 by microbroth dilution method.
Assay [1] deals with Staphylococcus aureus. The experiment in a line: Antibacterial activity against linezolid-resistant Staphylococcus aureus by microbroth dilution method. For orientation: Broth dilution looks for growth in wells or tubes with falling amounts of substance.
In assay [2] the test system is Staphylococcus aureus. The experiment in a line: Antibacterial activity against Staphylococcus aureus ATCC 29213 by microbroth dilution method.
The subject of another assay is Haemophilus influenzae. Description: Antibacterial activity against Haemophilus influenzae ATCC 49247 by microbroth dilution method.
Another assay has as its system Enterococcus faecium. The experiment in a line: Antibacterial activity against Enterococcus faecium 19434 by microbroth dilution method.
Assay [3] has as its system Staphylococcus aureus. The experiment in a line: Antibacterial activity against methicillin-resistant Staphylococcus aureus 1201984 by microbroth dilution method.
Assay [4] has as its system Staphylococcus aureus. Description: Antibacterial activity against Staphylococcus aureus ATCC 6538P by microbroth dilution method.
Assay [5] concerns Staphylococcus epidermidis. The experiment in a line: Antibacterial activity against Staphylococcus epidermidis ATCC 14990 by microbroth dilution method.
The test system of the next assay is Streptococcus pneumoniae. The experiment in a line: Antibacterial activity against Streptococcus pneumoniae 55143 by microbroth dilution method.
Assay [6] relates to Staphylococcus aureus. Description: Antibacterial activity against Staphylococcus aureus ATCC 33591 by microbroth dilution method.

Eight compounds from ChEMBL document CHEMBL4130562, “Design, Synthesis, and Antibacterial Evaluation of Oxazolidinones with Fused Heterocyclic C-Ring Substructure” (ACS Med Chem Lett, 2017) can be followed below.

Converted amounts (≈) assume the structure as drawn.

`O=C1COc2cccc(-c3ccc(N4C[C@H](CO)OC4=O)cc3F)c2N1`: the MIC in the assay with Enterococcus faecalis, against Streptococcus pyogenes, against Staphylococcus aureus [1], in the assay on Staphylococcus aureus [2], against Haemophilus influenzae and in the assay on Enterococcus faecium was above 32 µg/mL each time. The MIC (against Staphylococcus aureus [3]; against Staphylococcus aureus [4]; in assay [5]; in the assay with Streptococcus pneumoniae; against Staphylococcus aureus [6]) was above 32 µg/mL in each case.
In the case of `Cc1nc2ccc(-c3ccc(N4C[C@H](CO)OC4=O)cc3F)cc2c(=O)[nH]1`, the MIC against Enterococcus faecalis was 0.5 µg/mL (≈ 1.35 µM); against Streptococcus pyogenes, 0.25 µg/mL (≈ 0.677 µM); in the assay with Staphylococcus aureus [1], 2 µg/mL (≈ 5.41 µM); in the assay on Staphylococcus aureus [2], 0.25 µg/mL (≈ 0.677 µM); against Haemophilus influenzae, 0.5 µg/mL (≈ 1.35 µM); in the assay with Enterococcus faecium, 0.25 µg/mL (≈ 0.677 µM). Moreover, the MIC in the assay on Staphylococcus aureus [3] came to 0.25 µg/mL (≈ 0.677 µM); against Staphylococcus aureus [4], 0.125 µg/mL (≈ 0.338 µM); in [5] it was 0.125 µg/mL (≈ 0.338 µM); in the assay with Streptococcus pneumoniae, 0.25 µg/mL (≈ 0.677 µM); against Staphylococcus aureus [6], 0.5 µg/mL (≈ 1.35 µM).
With `O=C1O[C@@H](CO)CN1c1ccc(-c2ccc3oc(=O)[nH]c3c2)c(F)c1`, the MIC in the assay on Enterococcus faecalis amounted to 0.5 µg/mL (≈ 1.45 µM); against Streptococcus pyogenes, 0.125 µg/mL (≈ 0.363 µM); in the assay with Staphylococcus aureus [1], 4 µg/mL (≈ 11.6 µM); in the assay with Staphylococcus aureus [2] it was 1 µg/mL (≈ 2.9 µM); in the assay with Haemophilus influenzae it was 4 µg/mL (≈ 11.6 µM); with Enterococcus faecium, 0.25 µg/mL (≈ 0.726 µM). Moreover, the MIC was 32 µg/mL (≈ 92.9 µM) in the assay on Staphylococcus aureus [3]; 0.25 µg/mL (≈ 0.726 µM) with Staphylococcus aureus [4]; below 0.06 µg/mL in assay [5]; 0.125 µg/mL (≈ 0.363 µM) with Streptococcus pneumoniae; 32 µg/mL (≈ 92.9 µM) in the assay with Staphylococcus aureus [6].
With `O=C1COc2cc(-c3ccc(N4C[C@H](CO)OC4=O)cc3F)ccc2N1`, the MIC against Enterococcus faecalis came out at 1 µg/mL (≈ 2.79 µM); against Streptococcus pyogenes, 2 µg/mL (≈ 5.58 µM); against Staphylococcus aureus [1], 16 µg/mL (≈ 44.7 µM); in the assay with Staphylococcus aureus [2], 0.5 µg/mL (≈ 1.4 µM); with Haemophilus influenzae, 0.25 µg/mL (≈ 0.698 µM); with Enterococcus faecium it was 1 µg/mL (≈ 2.79 µM). Moreover, the MIC against Staphylococcus aureus [3] stood at 0.5 µg/mL (≈ 1.4 µM); with Staphylococcus aureus [4], 0.5 µg/mL (≈ 1.4 µM); in assay [5] it was 0.5 µg/mL (≈ 1.4 µM); against Streptococcus pneumoniae, 2 µg/mL (≈ 5.58 µM); in the assay with Staphylococcus aureus [6] it was 0.5 µg/mL (≈ 1.4 µM).
Turning to `O=C1O[C@@H](CO)CN1c1ccc(-c2cnc3ccc(=O)[nH]c3c2)c(F)c1`, the MIC in the assay on Enterococcus faecalis was 0.5 µg/mL (≈ 1.41 µM); against Streptococcus pyogenes, 0.25 µg/mL (≈ 0.704 µM); against Staphylococcus aureus [1], 8 µg/mL (≈ 22.5 µM); against Staphylococcus aureus [2] it was 0.5 µg/mL (≈ 1.41 µM); with Haemophilus influenzae, 0.5 µg/mL (≈ 1.41 µM); in the assay on Enterococcus faecium, 0.125 µg/mL (≈ 0.352 µM). Also, the MIC in the assay with Staphylococcus aureus [3] was determined as 16 µg/mL (≈ 45 µM); against Staphylococcus aureus [4] it was 0.25 µg/mL (≈ 0.704 µM); in assay [5], 0.25 µg/mL (≈ 0.704 µM); against Streptococcus pneumoniae, 0.25 µg/mL (≈ 0.704 µM); in the assay on Staphylococcus aureus [6], 0.25 µg/mL (≈ 0.704 µM).
Regarding `O=C1Cc2ccc(-c3ccc(N4C[C@H](CO)OC4=O)cc3F)cc2N1`, the MIC came out at 0.25 µg/mL (≈ 0.73 µM) in the assay with Enterococcus faecalis; 0.125 µg/mL (≈ 0.365 µM) against Streptococcus pyogenes; 4 µg/mL (≈ 11.7 µM) with Staphylococcus aureus [1]; 1 µg/mL (≈ 2.92 µM) in the assay on Staphylococcus aureus [2]; 2 µg/mL (≈ 5.84 µM) against Haemophilus influenzae; 0.25 µg/mL (≈ 0.73 µM) against Enterococcus faecium. The MIC in the assay with Staphylococcus aureus [3] is 32 µg/mL (≈ 93.5 µM); against Staphylococcus aureus [4], 0.25 µg/mL (≈ 0.73 µM); in assay [5], below 0.06 µg/mL; against Streptococcus pneumoniae it was 0.125 µg/mL (≈ 0.365 µM); in the assay with Staphylococcus aureus [6], 32 µg/mL (≈ 93.5 µM).
As for `CC(=O)NC[C@H]1CN(c2ccc(N3CCOCC3)c(F)c2)C(=O)O1` [LINEZOLID], the MIC came out at 0.5 µg/mL (≈ 1.48 µM) against Streptococcus pyogenes; 16 µg/mL (≈ 47.4 µM) against Staphylococcus aureus [1]; 4 µg/mL (≈ 11.9 µM) against Haemophilus influenzae; 2 µg/mL (≈ 5.93 µM) in the assay with Enterococcus faecium; 1 µg/mL (≈ 2.96 µM) with Staphylococcus aureus [3]; 1 µg/mL (≈ 2.96 µM) with Staphylococcus aureus [4]. Further, the MIC with Staphylococcus aureus [6] is 1 µg/mL (≈ 2.96 µM).
For the compound `CN[C@H](CC(C)C)C(=O)N[C@H]1C(=O)N[C@@H](CC(N)=O)C(=O)N[C@H]2C(=O)N[C@H]3C(=O)N[C@H](C(=O)N[C@H](C(=O)O)c4cc(O)cc(O)c4-c4cc3ccc4O)[C@H](O)c3ccc(c(Cl)c3)Oc3cc2cc(c3O[C@@H]2O[C@H](CO)[C@@H](O)[C@H](O)[C@H]2O[C@H]2C[C@](C)(N)[C@H](O)[C@H](C)O2)Oc2ccc(cc2Cl)[C@H]1O` [VANCOMYCIN], the MIC in the assay on Enterococcus faecalis, with Streptococcus pyogenes and in the assay on Streptococcus pneumoniae was 2 µg/mL (≈ 1.38 µM) each time.
